Assay results taken from ChEMBL document CHEMBL1201862, “PubChem BioAssay data set” (2004).
The source made the active and inactive calls.

Experiments:
Caspase-7 = Caspase-7 (Homo sapiens, UniProt P55210); experiment: human caspase-7 inhibitors, dose response, selectivity assay for caspase-6 inhibitor project, biochemical, DEVD-R110 fluorescence, cherry-pick (AID 743295)
Caspase-6 = target: T1, Caspase-6 (Homo sapiens, UniProt P55212); experiment: human caspase-6 inhibitors, dose response, biochemical, VEID-R110 fluorescence, cherry-pick (AID 720632)
T1 sequence (P55212 whole entry): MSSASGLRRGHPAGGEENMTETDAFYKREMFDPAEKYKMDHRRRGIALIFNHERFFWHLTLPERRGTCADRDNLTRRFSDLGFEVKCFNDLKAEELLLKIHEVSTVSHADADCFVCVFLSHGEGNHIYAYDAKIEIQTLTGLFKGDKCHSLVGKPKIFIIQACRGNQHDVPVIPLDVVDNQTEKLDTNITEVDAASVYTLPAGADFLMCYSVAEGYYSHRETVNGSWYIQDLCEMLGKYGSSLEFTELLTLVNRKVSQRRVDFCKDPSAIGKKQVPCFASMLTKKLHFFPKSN

[1] = target: T2, Low molecular weight phosphotyrosine protein phosphatase (Homo sapiens, UniProt P24666); type: functional; details: read-out: IC50_Mean;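 further: Dose-response confirmation assay measuring inhibition of LMPTP enzyme activity by fluorescence intensity read-out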
T2 sequence (P24666 whole entry): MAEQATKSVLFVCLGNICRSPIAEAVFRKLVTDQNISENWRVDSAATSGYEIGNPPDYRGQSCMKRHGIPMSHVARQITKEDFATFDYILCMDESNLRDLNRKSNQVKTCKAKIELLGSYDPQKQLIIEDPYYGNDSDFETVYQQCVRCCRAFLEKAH

[2] = AlphaScreen signal interference compounds, dose response, artefact control for ARNT-TACC3 interaction inhibitor project, biochemical, luminescence, cherry-pick (AID 651705); type: functional;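 further: AlphaScreen bead proximity signal that flags compounds interfering with the detection technology; potency reflects signal decrease which marks the compound as an assay artifact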
cells [3] = type: functional, cell-based
INS1 = experiment: beta cell apoptosis inhibitors, cytokine rescue, dose response, luminescence, retest (AID 449756); type: functional, cell-based; details: Rattus norvegicus;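 further: cell death triggered by IL-1 beta plus TNF-alpha plus IFN-gamma mixture; protective hits raise ATP signal compared with cytokine alone wells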
cells [4] = type: functional, cell-based; remark: listed apart in the source
Nonstructural protein 1 = Nonstructural protein 1 (Influenza A virus, UniProt Q194T2); type: functional, Influenza A virus (A/California/07/2009(H1N1))
cells [5] = type: functional, cell-based; remark: listed apart in the source
[6] = target: T3, Nuclear receptor subfamily 0 group B member 1 (Homo sapiens, UniProt P51843); type: functional, cell-based;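 further: HEK293T cells transfected with SF-1 and DAX-1 plus StAR promoter luciferase reporter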
T3 sequence (P51843 whole entry): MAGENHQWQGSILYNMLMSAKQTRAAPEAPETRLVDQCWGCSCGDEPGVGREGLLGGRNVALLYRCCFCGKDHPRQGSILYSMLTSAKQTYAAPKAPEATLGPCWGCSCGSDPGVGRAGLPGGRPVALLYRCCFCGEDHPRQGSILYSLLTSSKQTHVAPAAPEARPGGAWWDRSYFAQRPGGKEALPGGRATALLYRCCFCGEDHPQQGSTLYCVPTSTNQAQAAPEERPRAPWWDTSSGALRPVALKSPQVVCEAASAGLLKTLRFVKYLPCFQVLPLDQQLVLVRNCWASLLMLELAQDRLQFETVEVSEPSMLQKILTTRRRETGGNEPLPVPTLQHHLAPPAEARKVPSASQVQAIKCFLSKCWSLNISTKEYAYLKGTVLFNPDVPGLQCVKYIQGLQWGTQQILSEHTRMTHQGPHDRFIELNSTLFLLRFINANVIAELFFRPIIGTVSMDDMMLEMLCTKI

Vero = experiment: Vero cell toxicity, dose response, cytotoxicity control, plate reader, cherry-pick samples (AID 687020); type: functional, cell-based; details: Chlorocebus sabaeus
[7] = target: Fructose-bisphosphate aldolase (Mycobacterium tuberculosis, UniProt P9WQA3); experiment: Fluorescence-based biochemical high throughput dose response assay for inhibitors of the fructose-bisphosphate aldolase (FBA) of M. tuberculosis.; type: functional
[8] = THP-1 cell cytotoxicity, dose response, cytotoxicity control for Vif-APOBEC3G degradation inhibitor project, THP-1 cells (AID 1117359); type: functional; details: Human immunodeficiency virus 1, THP-1
[9] = target: DNA repair and recombination protein RAD54-like (Homo sapiens, UniProt Q92698); experiment: inhibitors of human RAD54 branch migration, confirmation, biochemical, fluorescence, cherry-picked samples, dose series (AID 651657); type: functional
[10] = target: T4, DNA repair protein RAD52 homolog (Homo sapiens, UniProt P43351); type: functional, biochemical
T4 sequence (P43351 whole entry): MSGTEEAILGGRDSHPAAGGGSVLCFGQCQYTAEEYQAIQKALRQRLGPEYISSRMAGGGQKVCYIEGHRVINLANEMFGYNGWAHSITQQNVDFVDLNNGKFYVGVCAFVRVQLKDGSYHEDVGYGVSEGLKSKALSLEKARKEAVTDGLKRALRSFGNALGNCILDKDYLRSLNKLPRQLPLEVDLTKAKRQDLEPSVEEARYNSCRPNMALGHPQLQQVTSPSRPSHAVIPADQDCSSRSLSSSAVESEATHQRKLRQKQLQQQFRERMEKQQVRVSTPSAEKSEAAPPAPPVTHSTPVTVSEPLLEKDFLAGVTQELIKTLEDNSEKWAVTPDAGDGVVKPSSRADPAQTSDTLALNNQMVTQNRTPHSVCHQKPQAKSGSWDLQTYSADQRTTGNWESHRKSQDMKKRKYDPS

[11] = target: T5, Oxysterols receptor LXR-beta (Homo sapiens, UniProt P55055); type: functional, cell-based;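 further: Cell-based luminescence dose-response assay of agonist activity at LXR, run as a confirmatory counterscreen to a daf-12 agonist screen; HEK293 cells with Gal4-LXR fusion and GAL4-driven luciferase reporter; agonist potency from rising luciferase signal of a Gal4-LXR reporter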
T5 sequence (P55055 whole entry): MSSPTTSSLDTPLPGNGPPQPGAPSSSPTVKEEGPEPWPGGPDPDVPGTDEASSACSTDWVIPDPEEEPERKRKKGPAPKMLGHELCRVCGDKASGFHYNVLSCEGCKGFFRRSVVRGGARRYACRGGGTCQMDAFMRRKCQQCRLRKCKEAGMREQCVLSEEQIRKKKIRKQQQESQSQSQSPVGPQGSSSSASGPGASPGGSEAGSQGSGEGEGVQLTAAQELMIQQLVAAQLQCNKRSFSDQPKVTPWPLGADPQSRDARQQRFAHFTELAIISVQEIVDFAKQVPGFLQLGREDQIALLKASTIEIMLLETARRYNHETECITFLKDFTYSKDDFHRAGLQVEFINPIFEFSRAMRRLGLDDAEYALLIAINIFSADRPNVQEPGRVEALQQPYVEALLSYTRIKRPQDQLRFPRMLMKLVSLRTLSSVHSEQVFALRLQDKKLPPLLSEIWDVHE

cells [12] = experiment: cells
[13] = A549 cell cytotoxicity, dose response, cytotoxicity control, plate reader, cherry-pick, antagonist series (AID 743412); type: functional, cell-based
[14] = LGR2 antagonists, dose response, cell-based, HEK293, CRE-luciferase reporter, cherry pick, set 2 (AID 743343); type: functional;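 further: transfected cells were stimulated with diluted bursicon conditioned medium after compound addition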
[15] = MC4R antagonists, dose response, counter-screen for LGR2 antagonist project, cell-based, plate reader, cherry pick (AID 743444); type: functional;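 further: transfected HEK 293 cells stimulated with alpha-MSH peptide; potency of inhibitors of the alpha-MSH evoked signal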
[16] = HepG2 cell cytotoxicity, dose response, cytotoxicity control, plate reader, cherry-pick, antagonist series (AID 743416); type: functional, cell-based
[17] = HEK293T cytotoxicity, dose response, cytotoxicity control for miR-122 modulator project, cell-based, activator set, cherry-pick (AID 720690); type: functional;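 further: HEK293T human cells scored for general mammalian cytotoxicity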
[18] = miR-122 activators in hepatoma reporter cells, dose response, cell-based, Huh7 psiCHECK-miR122, Renilla luciferase, cherry-picked (AID 651956); type: functional;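 further: huh7 hepatoma cells stably carrying a psiCHECK-2 miR-122 sensor plasmid; renilla luciferase signal reporting endogenous miR-122 activity after 48 h compound exposure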
[19] = HEK293 cell cytotoxicity, dose response, cytotoxicity control, plate reader, cherry-picked samples (AID 743446); type: functional, cell-based
[20] = HEK293T cytotoxicity, dose response, cytotoxicity control for miR-122 modulator project, cell-based, inhibitor set, cherry-pick, set 2 (AID 720697); type: functional

Chain of Fructose-bisphosphate aldolase (P9WQA3 whole entry): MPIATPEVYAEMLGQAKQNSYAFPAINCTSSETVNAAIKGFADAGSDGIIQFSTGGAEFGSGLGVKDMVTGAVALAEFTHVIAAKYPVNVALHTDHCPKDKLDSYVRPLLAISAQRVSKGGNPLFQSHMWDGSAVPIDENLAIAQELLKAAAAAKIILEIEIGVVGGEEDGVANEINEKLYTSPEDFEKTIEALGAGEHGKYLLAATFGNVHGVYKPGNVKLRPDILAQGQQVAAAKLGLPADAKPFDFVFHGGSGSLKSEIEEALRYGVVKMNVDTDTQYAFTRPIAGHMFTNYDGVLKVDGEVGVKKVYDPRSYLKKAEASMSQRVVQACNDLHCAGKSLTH
Chain of DNA repair and recombination protein RAD54-like (Q92698 whole entry): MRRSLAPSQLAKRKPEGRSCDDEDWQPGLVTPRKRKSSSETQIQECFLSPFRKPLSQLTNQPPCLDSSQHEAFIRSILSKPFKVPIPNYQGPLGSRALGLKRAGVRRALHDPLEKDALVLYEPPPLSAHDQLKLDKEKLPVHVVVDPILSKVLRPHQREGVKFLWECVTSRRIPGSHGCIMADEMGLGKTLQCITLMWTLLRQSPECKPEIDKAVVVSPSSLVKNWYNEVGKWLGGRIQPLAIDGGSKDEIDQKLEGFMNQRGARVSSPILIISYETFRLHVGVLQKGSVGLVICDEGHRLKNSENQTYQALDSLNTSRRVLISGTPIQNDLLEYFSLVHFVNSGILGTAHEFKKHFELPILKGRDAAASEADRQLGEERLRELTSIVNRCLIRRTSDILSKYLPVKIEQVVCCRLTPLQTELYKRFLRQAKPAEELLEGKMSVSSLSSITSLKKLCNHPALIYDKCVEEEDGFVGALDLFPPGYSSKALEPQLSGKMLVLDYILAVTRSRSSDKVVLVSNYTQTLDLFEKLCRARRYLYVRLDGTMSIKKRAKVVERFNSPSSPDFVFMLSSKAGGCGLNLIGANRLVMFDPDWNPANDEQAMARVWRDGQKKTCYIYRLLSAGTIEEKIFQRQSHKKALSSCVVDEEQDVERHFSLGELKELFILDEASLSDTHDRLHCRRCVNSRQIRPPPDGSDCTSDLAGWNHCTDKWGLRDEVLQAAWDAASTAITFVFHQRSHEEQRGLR
Chain of Caspase-7 (P55210 24-198 limits assumed): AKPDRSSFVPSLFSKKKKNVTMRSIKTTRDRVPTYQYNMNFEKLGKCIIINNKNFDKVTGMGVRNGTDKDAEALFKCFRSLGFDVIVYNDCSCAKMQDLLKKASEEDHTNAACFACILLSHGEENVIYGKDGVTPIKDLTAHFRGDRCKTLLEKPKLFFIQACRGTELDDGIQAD
Chain of Caspase-7 (P55210 207-303 limits assumed): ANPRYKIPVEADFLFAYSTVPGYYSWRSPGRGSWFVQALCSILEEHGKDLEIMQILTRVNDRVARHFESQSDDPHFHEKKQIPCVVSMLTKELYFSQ
Chain of Nonstructural protein 1 (Q194T2 whole entry): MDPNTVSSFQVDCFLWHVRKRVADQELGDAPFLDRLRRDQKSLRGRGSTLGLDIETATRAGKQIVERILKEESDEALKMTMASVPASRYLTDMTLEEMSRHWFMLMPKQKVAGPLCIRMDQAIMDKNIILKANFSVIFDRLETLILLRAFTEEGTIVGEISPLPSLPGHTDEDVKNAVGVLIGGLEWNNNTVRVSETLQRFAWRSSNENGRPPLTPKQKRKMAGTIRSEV

CCOC(=O)c1sc2nc(OCCN3CCOCC3)cc(C)c2c1N
AC50 (Caspase-7): 45.2 µM (active) | AC50 (Caspase-6): 2.18 µM (active) | IC50 [1]: 61.1 µM (inactive)

Cc1ncc(CO)c(/C=N/NC(=O)c2cc3c(s2)CCCC3)c1O
AC50 [2]: 119 µM (active) | EC50 (cells [3]): > 350 µM (not active) | AC50 (INS1): 1.89 µM (active) | EC50 (cells [4]): 11.4 µM (active) | IC50 (Nonstructural protein 1): 11.9 µM (active)

COc1cc2c(c(OC)c1OC)-c1ccc(OC)c(=O)cc1C(NC(=O)c1ccccc1)CC2 (stereo unspecified)
IC50 (cells [5]): > 67.5 µM (inactive) | IC50 [6]: > 67.5 µM (inactive)

COc1ccccc1CNC(=O)C(=O)Nc1ccc(C(=O)N2CCC(C)CC2)cc1
AC50 (Vero): 25.8 µM (active)

COCCn1c(SCC(=O)N2CCCCC2)nc2c(c1=O)SCC2
IC50 [7]: > 9.99 µM (inactive)

CCOCCCN=C(S)Nc1ccc2nc(N3CCN(CC)CC3)cc(C)c2c1
CC50 [8]: > 40 µM (active) | AC50 [9]: 100 µM (inactive) | AC50 [10]: 33 µM (active)

c1ccc(-c2noc(-c3cccc4ccccc34)n2)nc1
EC50 [11]: > 67.5 µM (inactive) | EC50 (cells [12]): > 67.5 µM (inactive)

Cc1oc(C)c(C(=O)Nc2ccc(CC(=O)O)cc2)c1C(=O)Nc1ccc(CC(=O)O)cc1
IC50 [7]: > 9.99 µM (inactive)

C[C@H]1CN([C@@H](C)CO)S(=O)(=O)c2ccc(C#CC(C)(C)O)cc2O[C@@H]1CN(C)Cc1ccc(-c2ccccc2)cc1
AC50 [13]: 0.778 µM (active) | AC50 [14]: 29.6 µM (active) | AC50 [15]: 20.2 µM (active) | AC50 [16]: 0.759 µM (active) | AC50 [17]: 12.3 µM (active) | AC50 [18]: 7.8 µM (active) | AC50 [19]: 1.95 µM (active) | AC50 [20]: 10.7 µM (active)
